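All cell lines were grown in 96-well plates and treated with compound for 48 hours. At the TGI there is no net growth.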
Key:
Assay in all cases: inhibition of tumour cell growth, NCI panel, 48 h
[1] = tested on: SNB-78 CNS
[2] = tested on: SK-MEL-28 melanoma
[3] = tested on: MOLT-4 leukemia
[4] = tested on: UO-31 renal
[5] = tested on: CAKI-1 renal
[6] = tested on: HOP-18 NSCLC
[7] = tested on: SF-295 CNS
[8] = tested on: NCI-H226 lung
[9] = tested on: SK-MEL-5 melanoma
[10] = tested on: HCT-15 colon
[11] = tested on: A498 renal
[12] = tested on: KM12 colon
[13] = tested on: RXF 393 renal
[14] = tested on: DMS 114 small cell lung
[15] = tested on: LOX IMVI melanoma
[16] = tested on: K-562 leukemia
[17] = tested on: HCT-116 colon
[18] = tested on: NCI-H23 lung
[19] = tested on: OVCAR-4 ovarian
[20] = tested on: SW-620 colon
[21] = tested on: COLO 205 colon
[22] = tested on: EKVX NSCLC
[23] = tested on: SNB-75 CNS
[24] = tested on: DLD-1 colon
[25] = tested on: HCC-2998 colon
[26] = tested on: HL-60(TB) leukemia
[27] = tested on: DMS 273 small cell lung
[28] = tested on: TK-10 renal
[29] = tested on: OVCAR-3 ovarian
[30] = tested on: 786-0 renal
[31] = tested on: U251 CNS
[32] = tested on: M19-MEL melanoma
[33] = tested on: IGROV1 ovarian
[34] = tested on: UACC-62 melanoma
[35] = tested on: RPMI-8226 leukemia
[36] = tested on: NCI-H460 lung
[37] = tested on: NCI-H522 lung
[38] = tested on: UACC-257 melanoma
[39] = tested on: ACHN renal
[40] = tested on: MALME-3M melanoma
[41] = tested on: SR leukemia
[42] = tested on: A549 NSCLC
[43] = tested on: OVCAR-5 ovarian
[44] = tested on: OVCAR-8 ovarian
[45] = tested on: KM20L2 colon
[46] = tested on: HOP-92 NSCLC
[47] = tested on: SNB-19 CNS
[48] = tested on: SF-539 CNS
[49] = tested on: SN12C renal
[50] = tested on: LXFL 529 NSCLC
[51] = tested on: SF-268 CNS
[52] = tested on: SK-MEL-2 melanoma
[53] = tested on: HT29 colon
[54] = tested on: SK-OV-3 ovarian
[55] = tested on: CCRF-CEM leukemia
[56] = tested on: HOP-62 NSCLC
[57] = tested on: M14 melanoma
[58] = tested on: XF 498 CNS

In the case of O=C1c2ccccc2-c2ccccc2C(=O)C1(Br)Br, the TGI [1] is reported as 23.4 µM, the TGI [2] is reported as 20.8 µM and the TGI [3] is reported as 7.53 µM. It also gave a TGI [4] of 27.5 µM, a TGI [5] of 16.7 µM and a TGI [6] of 26.2 µM. The TGI [7] was 29.6 µM, the TGI [8] was 31.7 µM and the TGI [9] was 31.1 µM. The TGI [10] was 25 µM, the TGI [11] was 30.2 µM and the TGI [12] was 31.5 µM. The TGI [13] was 10.9 µM, the TGI [14] was 28.5 µM and the TGI [15] was 22.2 µM. It also gave a TGI [16] of 28.3 µM, a TGI [17] of 21.9 µM and a TGI [18] of 26.4 µM. It also gave a TGI [19] of 26.7 µM, a TGI [20] of 13 µM and a TGI [21] of 20.7 µM. For the same compound, the TGI [22] was 27.7 µM, the TGI [23] was 17.6 µM and the TGI [24] was 20.3 µM. For the same compound, the TGI [25] was 32.2 µM, the TGI [26] was 6.47 µM and the TGI [27] was 29.8 µM. It also gave a TGI [28] of 24.6 µM, a TGI [29] of 27.4 µM and a TGI [30] of 25.7 µM. It also gave a TGI [31] of 29.4 µM, a TGI [32] of 22.3 µM and a TGI [33] of 27.2 µM. For the same compound, the TGI [34] was 19.6 µM, the TGI [35] was 4.65 µM and the TGI [36] was 35 µM. The TGI [37] was 4.92 µM, the TGI [38] was 22.8 µM and the TGI [39] was 24.6 µM. For the same compound, the TGI [40] was 13.6 µM, the TGI [41] was 4.95 µM and the TGI [42] was 34.6 µM. For the same compound, the TGI [43] was 32 µM, the TGI [44] was 23.9 µM and the TGI [45] was 31.8 µM. It also gave a TGI [46] of 9.59 µM, a TGI [47] of 31.6 µM and a TGI [48] of 23.7 µM. It also gave a TGI [49] of 24.2 µM, a TGI [50] of 21.1 µM and a TGI [51] of 28.5 µM. The TGI [52] was 23.6 µM, the TGI [53] was 32.7 µM and the TGI [54] was 33.7 µM. It also gave a TGI [55] of 9.26 µM, a TGI [56] of 32.2 µM and a TGI [57] of 17.9 µM.

For CC1(C)OC(=O)C(c2cccs2)C(=O)O1, the TGI [1] was > 100 µM, the TGI [2] was > 100 µM and the TGI [3] was > 100 µM. For the same compound, the TGI [4] was > 100 µM, the TGI [5] was > 100 µM and the TGI [6] was > 100 µM. The TGI [7] was > 100 µM, the TGI [8] was > 100 µM and the TGI [9] was > 100 µM. The TGI [10] was > 100 µM, the TGI [12] was > 100 µM and the TGI [13] was > 100 µM. The TGI [14] was > 100 µM, the TGI [15] was > 100 µM and the TGI [16] was > 100 µM. For the same compound, the TGI [17] was > 100 µM, the TGI [18] was > 100 µM and the TGI [19] was > 100 µM. For the same compound, the TGI [20] was > 100 µM, the TGI [21] was > 100 µM and the TGI [22] was > 100 µM. For the same compound, the TGI [23] was > 100 µM, the TGI [24] was > 100 µM and the TGI [25] was > 100 µM. The TGI [27] was > 100 µM, the TGI [28] was > 100 µM and the TGI [29] was > 100 µM. The TGI [30] was > 100 µM, the TGI [31] was > 100 µM and the TGI [58] was > 100 µM. For the same compound, the TGI [34] was > 100 µM, the TGI [35] was > 100 µM and the TGI [36] was > 100 µM. The TGI [37] was > 100 µM, the TGI [38] was > 100 µM and the TGI [39] was > 100 µM. For the same compound, the TGI [40] was > 100 µM, the TGI [41] was > 100 µM and the TGI [42] was > 100 µM. The TGI [43] was > 100 µM, the TGI [44] was > 100 µM and the TGI [45] was > 100 µM. The TGI [46] was > 100 µM, the TGI [47] was > 100 µM and the TGI [48] was > 100 µM. The TGI [49] was > 100 µM, the TGI [50] was > 100 µM and the TGI [51] was > 100 µM. For the same compound, the TGI [52] was > 100 µM, the TGI [53] was > 100 µM and the TGI [54] was > 100 µM. The TGI [55] was > 100 µM, the TGI [56] was > 100 µM and the TGI [57] was > 100 µM.
